Data set [1] deals with Plasmodium falciparum (NF54) proliferative erythrocytic stages. The experiment in a line: In vitro activity against Plasmodium falciparum erythrocytic stages. Format: cell-based. Conditions: for P. falciparum SI (selectivity index): IC50 in L6 cells divided by IC50 in P. falciparum; for IC50: Plasmodium falciparum. On the procedure:
In parallel, the cytotoxicity of these compounds in rat skeletal myoblasts (L-6 cells) was determined in order to obtain an initial assessment of their selectivity.
(§1) In vitro activity assays against a panel of protozoal parasites, namely Trypanosoma brucei rhodesiense (STIB 900), Trypanosoma cruzi (Tulahuen C4), Leishmania donovani (MHOM/ET/67/L82), and Plasmodium falciparum (NF54), and cytotoxicity tests against mammalian cells (L6-cell line from rat-skeletal myoblasts) were performed according to previously described methods ([2], [3]). All assays were performed in at least three independent replicates.

Data set [2] concerns Trypanosoma cruzi (Tulahuen C4) amastigotes. In words: In vitro activity against Trypanosoma cruzi amastigotes. The note with it: for T. cruzi SI (selectivity index): IC50 in L6 cells divided by IC50 in T. cruzi; for IC50: Trypanosoma cruzi, Tulahuen C4, mean of at least three independent replicates ± SD, read-out: T. cruzi IC50. Format: cell-based. The procedure: (§2) Based on the antiparasitic bioactivity of the crude extract of MCy12716, angiolams A (1), B (2), C (3), D (4), and F (5) were tested for their in vitro activities against the following protozoan parasites: Trypanosoma brucei rhodesiense (STIB 900) bloodstream forms, Trypanosoma cruzi (Tulahuen C4) amastigotes, Leishmania donovani (MHOM/ET/67/L82) axenic amastigotes, and Plasmodium falciparum (NF54) proliferative erythrocytic stages. In parallel, the cytotoxicity of these compounds in rat skeletal myoblasts (L-6 cells) was determined in order to obtain an initial assessment of their selectivity.
as §1

The subject of data set [3] is Leishmania donovani (MHOM/ET/67/L82) axenic amastigotes. In words: In vitro activity against Leishmania donovani axenic amastigotes. Format: cell-based. The note with it: for L. donovani SI (selectivity index): IC50 in L6 cells divided by IC50 in L. donovani; for IC50: Leishmania donovani, MHOM-ET-67/L82 axenic amastigotes, mean of at least three independent replicates ± SD, read-out: L. donovani IC50. On the procedure: as §2, §1

A short description of another data set: Cytotoxicity in L6 cells. In kind it is cell-based, rat. The procedure: as §2, §1
Data set [4] has as its system Trypanosoma brucei rhodesiense (STIB 900) bloodstream forms. The experiment in a line: In vitro activity against Trypanosoma brucei rhodesiense bloodstream forms. In kind it is cell-based. Conditions: for T. b. rhodesiense SI (selectivity index): IC50 in L6 cells divided by IC50 in T. b. rhodesiense; for IC50: Trypanosoma brucei, read-out: T. b. rhodesiense IC50. On the procedure:
as §2, §1

The mark [5] stands for this setting: NF54, mean of at least three independent replicates ± SD, read-out: P. falciparum IC50.
[6] abbreviates: STIB 900, mean of at least three independent replicates ± SD.
Where [7] appears, read: L6 rat skeletal myoblasts, mean of at least three independent replicates ± SD, read-out: Cytotoxicity in L6 cells IC50.

The results in this text go back to article PMC10913735, “New myxobacteria of the Myxococcaceae clade produce angiolams with antiparasitic activities” (Microbiology Spectrum, 2024).

Like-named read-outs stand apart in the source and are kept apart here.

As usually defined, the IC50 is the concentration needed to halve the response being measured.

With `C=C/C=C(\C)[C@@H](O)CC[C@@H](C)/C=C/[C@@H]1CC[C@@H](C)C(=O)CC(=O)N[C@@H](C)CCC(=O)[C@@H](C)[C@H](O)[C@@H](C)/C=C(\C)C(=O)O1` [Angiolam A, angiolam A], the “P. falciparum SI (selectivity index)” value in data set [1] is given as 34.9. The IC50 in data set [1] (setting [5]) was found to be 2.7 ± 0.5 µM; in data set [2], 12.9 ± 5.3 µM; in data set [3] it was 16.7 ± 7.3 µM; in “Cytotoxicity in L6 cells” (rat), 94 ± 23.7 µM; in data set [4] (setting [6]) it was 1.5 ± 0.6 µM. Also, the “T. cruzi SI (selectivity index)” value in data set [2] is 7.3. The “L. donovani SI (selectivity index)” value in data set [3] was determined as 5.62. In addition, in data set [4], the “T. b. rhodesiense SI (selectivity index)” value is 63.2.

`C=C/C=C(\C)C(=O)CC[C@@H](C)/C=C/[C@@H]1CC[C@@H](C)C(=O)CC(=O)N[C@@H](C)CCC(=O)[C@@H](C)[C@H](O)[C@@H](C)/C=C(\C)C(=O)O1` [Angiolam B, angiolam B]: the figures for the “P. falciparum SI (selectivity index)” value in data set [1] and in data set [1] (listed as Angiolam B (2)) were at least 30 and 91.6, respectively. Further, the IC50 was found to be 0.3 ± 0.1 µM in data set [1] (setting [5]); 30.4 ± 10 µM in data set [2]; 6.6 ± 1.9 µM in data set [3]; 27.8 ± 2 µM in “Cytotoxicity in L6 cells” (rat); 6.3 ± 1 µM in data set [4] (setting [6]). For the same molecule, the “T. cruzi SI (selectivity index)” value in data set [2] was at most 2.1; in data set [2] (listed as Angiolam B (2)), 0.9. In data set [3], the “L. donovani SI (selectivity index)” value came to 4.22. For the same molecule, the “T. b. rhodesiense SI (selectivity index)” value in data set [4] amounted to 4.4.

Regarding `CC/C=C(\C)[C@@H](O)CC[C@@H](C)/C=C/[C@@H]1CC[C@@H](C)C(=O)CC(=O)N[C@@H](C)CCC(=O)[C@@H](C)[C@H](O)[C@@H](C)/C=C(\C)C(=O)O1` [Angiolam C, angiolam C], the entries for the “P. falciparum SI (selectivity index)” value in data set [1] and in data set [1] (listed as Angiolam C (3)) were at least 30 and 53.7, respectively. Further, the IC50 in data set [1] (setting [5]) was found to be 0.6 ± 0.4 µM; in data set [2], 34 ± 11.6 µM; in data set [3], 15.4 ± 2.3 µM; in “Cytotoxicity in L6 cells” (rat) it was 30.6 ± 2.3 µM; in data set [4] (setting [6]), 4.5 ± 0.4 µM. For the same molecule, the “T. cruzi SI (selectivity index)” value in data set [2] is at most 2.1; in data set [2] (listed as Angiolam C (3)) it was 0.9. Besides, in data set [3], the “L. donovani SI (selectivity index)” value was determined as 1.99. Also, in data set [4], the “T. b. rhodesiense SI (selectivity index)” value is on record as 6.8.

On to `C=C/C=C(\C)[C@@H](O)CC[C@@H](C)/C=C/[C@@H]1CC[C@@H](C)C(=O)CC(=O)N[C@@H](C)CCC(=O)[C@@H](C)[C@H](O)[C@@H](C)/C=C(\CC)C(=O)O1` [Angiolam D, angiolam D], for which the “P. falciparum SI (selectivity index)” value in data set [1] (listed as Angiolam D (4)) came out at 37.1. Besides, the IC50 in data set [1] (setting [5]) stood at 0.8 ± 0.6 µM; in data set [2] it was 6.5 ± 2.2 µM; in data set [3], 8.2 ± 4.5 µM; in “Cytotoxicity in L6 cells” (setting [7]) it was 27.8 ± 3.7 µM; in data set [4] (setting [6]) it was 4.7 ± 1.9 µM. The “T. cruzi SI (selectivity index)” value in data set [2] stood at 4.3. Moreover, in data set [3], the “L. donovani SI (selectivity index)” value is reported as 3.38. The “T. b. rhodesiense SI (selectivity index)” value in data set [4] was 6.0.

In the case of `C=C/C=C(\C)[C@@H](O)CC[C@@H](C)/C=C/[C@@H]1CC[C@@H](C)C(=O)CC(=O)N[C@@H](C)CCC(=O)[C@@H](C)[C@H](O)[C@@H](CC)/C=C(\CC)C(=O)O1` [Angiolam F, angiolam F], the “P. falciparum SI (selectivity index)” value in data set [1] turned out to be 37; in data set [1] (listed as Angiolam F (5)), 37.4. For the same molecule, the IC50 in data set [1] (setting [5]) came to 1.3 ± 0.6 µM; in data set [2] it was 24.4 ± 5 µM; in data set [3] it was 17.6 ± 2.1 µM; in the data set “Cytotoxicity in L6 cells” (rat), 49.9 ± 21.6 µM; in data set [4] (setting [6]), 25 ± 1.4 µM. The “T. cruzi SI (selectivity index)” value is reported as at most 2.1 in data set [2] and 2.1 in data set [2] (listed as Angiolam F (5)). The “L. donovani SI (selectivity index)” value in data set [3] amounted to 2.83. For the same molecule, the “T. b. rhodesiense SI (selectivity index)” value in data set [4] was 2.0.

On to `O=C(Cn1ccnc1[N+](=O)[O-])NCc1ccccc1` [Benznidazole, reference compound], for which the IC50 in data set [2] was found to be 2.47 µM.

Consider `CCN(CC)CCCC(C)Nc1ccnc2cc(Cl)ccc12` (centres unmarked) [Chloroquine, reference compound], for which the IC50 in data set [1] (NF54, read-out: P. falciparum IC50) was 0.004 µM.

Take `Nc1nc(N)nc(Nc2ccc([As]3SCC(CO)S3)cc2)n1` (centres unmarked) [Melarsoprol, reference compound]: in data set [4], the IC50 was found to be 0.02 µM.

As for `CCCCCCCCCCCCCCCCOP(=O)([O-])OCC[N+](C)(C)C` [Miltefosine, reference compound], the IC50 in data set [3] turned out to be 0.53 µM.

For the molecule `COc1cc([C@@H]2c3cc4c(cc3[C@H](O)[C@H]3COC(=O)[C@H]23)OCO4)cc(OC)c1OC` [Podophyllotoxin, reference compound], in “Cytotoxicity in L6 cells” (setting [7]), the IC50 came to 0.02 µM.
